The values that follow come from patent US20110003774A1, “COMPOUNDS HAVING ANTI-PROLIFERATIVE PROPERTIES” (VITAL HEALTH SCIENCES PTY. LTD., priority 2003, published 2011).

In assay [1] the test system is Rat Aortic Smooth Muscle Cells (RASMC). Nature of the assay: Smooth muscle cell proliferation - cell counts (Example 1). Type of assay: cell-based. The conditions noted are these: for Inhibition of cellular proliferation (in words): cell counts after 72 h, tested 0.25-100 μM. From the text:
The Rat Aortic Smooth Muscle Cells (RASMC) used in proliferative studies are derived from the tunica intima and tunica media of healthy, fibrous plaque-free adult rat aorta. This cell line is an accepted model for the study of atherosclerosis, since increased arterial smooth muscle mass are found in the intima lesion of atherosclerosis. RASMC are cryopreserved at second passage and can be propagated at least 16 population doublings. RASMC respond to various factors by cell proliferation and hypertrophy, which are prominent indicators of atherosclerosis in vascular disease. RASMC are well suited for the study of large vessel smooth muscle cell growth and differentiation and serve as an in vitro model in correlation with live rat models.
Rat Aortic Smooth Muscle Cells (RASMC) were seeded in growth medium (basal medium+10% FBS) into 6 well plates (50,000 cells/well). After 24 h, cells were washed twice with Hanks Buffered Salt Solution and serum depleted media (basal medium+0.2% FBS) was added to each well. Cells were serum starved for 48 h. Treatments were then prepared in growth medium and added to each well (3 ml/well). Each treatment was conducted in triplicate. The effect of tocopherol and tocopherol phosphate on smooth muscle cell proliferation was tested at eight concentrations: 0.25, 0.5, 1, 5, 10, 20, 50 and 100 μM. Control treatments included: growth medium and growth medium+vehicle (EtOH, 1/1000). After a 72 h incubation period at 37° C., 5% CO2, cells were counted.
Cell proliferation was assessed and quantified by cell counting. Cells were counted after 48 h starvation in basal medium supplemented with 0.2% serum before the addition of test compounds. The average cell count of triplicate wells was ˜60,000. This number exceeds the number of cells seeded prior to starvation (50,000). Therefore the cells were determined to be viable and treatments were added to each well as described previously.

Assay [2] relates to CD36 scavenger receptor. Briefly: Surface expression of CD36 scavenger receptor, FACS with antiCD36-FITC. Type of assay: cell-based, human. The conditions noted are these: THP-1 monocytes, control cells treated with tocopherol. The method, then:
(§1) Cell Culture: Tocopherol and the TP/T2P mixture were each dissolved in ethanol, and the concentrations of the stock solutions were confirmed spectrophotometrically. Monocytes (THP-1) were grown in RPMI/10% FCS.
FIG. 6 represents the change in cell numbers over time as indicated by the number of cells which have taken up the fluorescent antibody.

Assay [3] deals with THP-1 monocytes. Briefly: Uptake of oxLDL-DiO by FACS. Type of assay: cell-based, human. The protocol:
Labeling oxLDL. OxLDLs (90% to 100% oxidation) were purchased from Intracell Corp. Small amounts of LDL were oxidized with CuSO4 ([…]) at 37° C. for 18 to 22 hours. LDL oxidation was confirmed by the formation of a characteristic smear band on an agarose gel. Labeling of oxLDL was done basically as previously described. OxLDLs were incubated at 37° C. with DiO (Molecular Probes) in lipoprotein-deficient serum (Sigma) for 15 hours. The labeled oxLDLs (oxLDL-DiO) were purified by ultracentrifugation over a KBr gradient and dialyzed against several changes of saline-EDTA ([…] NaCl-0.01% EDTA) for 6 hours.
Uptake of oxLDL: Uptake of oxLDL was studied with fluorescence-activated cell sorting (FACS). For FACS, the cells were pretreated for 16 hours with 50 μM tocopherol, tocopheryl phosphates, or ethanol solvent (control) and then incubated with oxLDL-DiO (5 μg/mL medium) for 6 hours. For competition experiments, the cells were incubated with monoclonal anti-CD36 antibody (60 μg/5 mL DMEM) (Ancell), with an unspecific isotype-matched antibody (mouse IgM, Ancell), or with unlabeled oxLDL (100 μg/5 mL DMEM) (Intracell Corp). Thereafter, the cells were washed 3 times with PBS and twice with PBS-3 mg/mL BSA and then were detached with trypsin (0.25% trypsin, 0.03% EDTA). […] Data were calculated by subtracting the cell autofluorescence from the fluorescence of the treated samples.

Assay [4] relates to THP-1 monocytes. Nature of the assay: Growth inhibition of THP-1 monocytes. Type of assay: cell-based, human. The protocol: as §1
Growth inhibition by TP/T2P mixture of THP-1 Monocytes: Monocyte proliferation is an important event in the onset and progression of atherosclerosis.

In assay [5] the test system is Rat Aortic Smooth Muscle Cells (RASMC). Nature of the assay: Counting adhered cells (Example 2, Study 1). Type of assay: cell-based. The conditions noted are these: adhered cell counts, 0-100 μM, vs vehicle control. The method, then:
This example assesses the anti-proliferative activity of α-tocopheryl phosphate (TP), di-tocopheryl phosphate (T2P), the TP/T2P mixture and α-tocopherol using two types of cell counting assays: adhered cell counts and MTS assay.
In this study cells remaining on the bottom of the plate were counted and anti-proliferative activity was assessed based on the number of viable cells that remained adhered to the plate.

For assay [6] the test system is unchanged. Briefly: MTS proliferation assay (Example 2, Study 2). Type of assay: cell-based. The conditions noted are these: 100 μM, vs vehicle control. The protocol: The MTS proliferation assay was conducted to further support and compliment the adhered cell counts assay. The MTS assay is a well established method for the assessment of cellular proliferation which takes into account the viable cells that are adhered to the plate (as in adhered cell counts) and those that may become detached and float in the media during the course of the experiment (which would be missed in adhered cell counts).

For the molecule `Cc1c(C)c2c(c(C)c1O)CC[C@@](C)(CCC[C@H](C)CCC[C@H](C)CCCC(C)C)O2` [tocopherol, α-tocopherol], in assay [1] (72 h, higher doses), the “Optimum inhibition of proliferation (plateau)” value is “around 60%”. The figures for the “Inhibition of cellular proliferation (in words)” value in assay [1] (listed as Tocopherol) and in assay [1] (listed as α-tocopherol) were “inhibited only to some degree” and “partially inhibited”, respectively. Also, the “CD36 expression (in words)” value in assay [2] was “expressed large amounts of CD36 receptors”. Also, in assay [3], the “Concentration giving the same inhibition of oxLDL uptake (as 50 μM tocopherol, 33% reduction)” value was 50 µM. The “Reduction of OxLDL-DiO uptake signal (median of the peak)” value in assay [3] (50 μM, 16 h pretreatment, 6 h oxLDL-DiO) amounted to 33%. For the same molecule, in assay [4] (THP-1, TP/T2P at 30 μM (TP1) and 60 μM (TP2), especially after 48 h, relative to ethanol control), the “Inhibition of monocyte proliferation (in words)” value is given as “not able to inhibit”. In addition, in assay [4] (THP-1 monocytes), the “Inhibition of proliferation of human monocyte cells” value was “no inhibition”.

Turning to α-tocopheryl phosphate [TP], the “Maximum inhibition of smooth muscle cell proliferation” value in assay [5] is on record as “did not inhibit”. Also, the “Inhibition of smooth muscle cell proliferation” value in assay [6] was “up to 85%”.
